“Also recorded” adds a separate entry of the source. Read-outs that look alike come from different tables or passages of the source.

Series [1] concerns polyamine levels (erythrocyte and tumor). The series can be described thus: RBC and tumor polyamine levels in tumor-bearing rats infused with amino acid solutions (Example II, Table IV). The following applies: infusion alone, not in combination with essential amino acids; experimental tumor system. It counts as in vivo, male Fisher 344 rats.
Text: A methylcholanthrene-induced fibrosarcoma (0.17 g) was implanted as a brei into the right flank under anesthesia and the animals were fed a chow diet for 21 days. When the tumors were at least 1.0 cm in width, two-dimensional measurements with calipers were instituted and the equation, length (cm)×(width [cm])^2 ×1/2=grams of tumor tissue, was used to estimate tumor weight. […] The animals were then allowed to recover overnight and continuous infusions were started the next morning. […] Nephramine is a parenteral amino acid solution consisting of eight essential amino acids and histidine. After 6 days of continuous infusion, the animals were sacrificed by aortic bleeding. Liver and tumor were excised and weighed and kept frozen at -70° C. until assays were done. Only viable, nonnecrotic tumor tissue was saved and assayed.
Preparation of tumor tissue for polyamine assay was done in the following manner. Tumor tissue weighing 0.5 to 1.5 g was cut into small pieces and put into a disposable tube (16×100 mm). Ice-cold 4% sulfosalicylic acid was then added at 2 ml/g wet tissue. This mixture was homogenized in an ice bath for 40 seconds using the Brinkman Polytron homogenizer (P10ST generator set at 8.5). The suspension was centrifuged at 100,000 g for 30 minutes and the resulting clear supernatant was analyzed for polyamines on a Durrum D-500 amino acid analyzer.
For a further series, the system named is RBC putrescine levels. The series is described as follows: RBC putrescine in tumor-bearing and non tumor-bearing rats infused with feeding solutions (Table V). The following applies: vs chow or essential amino acids only.
The subject of series [2] is DFMO-induced thrombocytopenia. The series is described as follows: Influence of ornithine co-administration on DFMO-induced thrombocytopenia in the rat (Table VI). The following applies: 12 days continuous infusion.
Series [3] has as its system platelet counts / host toxicity. The series can be described thus: DFMO toxicity, continuous i.v. infusion for 12 days in rats (FIG. 3). It counts as in vivo. From the text:
FIG. 3. […] Bars indicate standard deviation.
In the above described rat model, a continuous infusion of DFMO was given through a central venous catheter.

For series [4] the test system is unchanged. Details: species or system human (patients with advanced colorectal carcinoma). The following applies: human, in vivo. From the text:
FIG. 4. Platelet counts plotted against days of continuous i.v. DFMO infusion in patients with advanced colorectal carcinoma. […] The paired points are connected by a straight line.
There was no incidence of nausea, vomiting or diarrhea.

The test system of another series is MCA sarcoma. The series is described as follows: DFMO effect on growth of MCA sarcoma. The format is in vivo.
Series [5] relates to DFMO-induced thrombocytopenia. The following applies: rat, in vivo.

Experimental for RBC putrescine levels: Another experiment which utilized formulations containing amino acid precursors of RBC polyamines, compared the response of tumor-bearing rats (TB) to non tumor-bearing rats (NTB). The study was performed basically in the manner described above with the following indicated differences. […] Chow rats (C) were fed chow with no i.v. infusion.
Where N is the number of rats included in the study, PUT is RBC levels (nm/g/ml, means±SD) of putrescine determined by HPLC.

With `N=C(N)NCCC[C@H](N)C(=O)O` [arginine], in series [1], the blood polyamine levels entry is reported as “has not produced elevated blood polyamine levels”. The “increase in RBC putrescine levels in NTB rats” value with RBC putrescine levels was “significantly greater (p<0.05)”.
On to `NCCC[C@H](N)C(=O)O` [ornithine], for which the “platelet suppression / change in platelet count” value in series [2] is reported as “blocked platelet suppression; also recorded: significant reversal in the platelet suppression”.
As to `NCCCC(N)(C(=O)O)C(F)F` (centres unmarked) [DFMO, Difluoromethylornithine], the clinical toxicity result in series [3] (12 day study) is “no significant clinical toxicity”. In addition, the “White cell count and hematocrit changes” value in series [3] (rat, in vivo) is reported as “not significantly altered”. In series [4], the White cell count result was “not affected by either dose”; the “decreased hearing acuity (patients)” value is on record as “two patients”; the hematocrit entry is “Significant suppression of the hematocrit”; the “nausea, vomiting or diarrhea” value is listed as “no incidence”. Also, in series [4], the platelet suppression entry is on record as “platelet suppression is the major limiting host toxicity” and the “platelet suppression, 8 g compared with 6 g dose” value is reported as “significantly greater platelet suppression at the 8 g dose”. Moreover, the tumor regression result with MCA sarcoma (MCA sarcoma) was “does not produce tumor regression”. For the same compound, in the series on MCA sarcoma (in vivo), the “growth rate of an MCA sarcoma” value is listed as “reduces the growth rate”. In series [5], the Platelets was 409 ± 127 × 10^3 /cu. mm and the “platelet suppression / change in platelet count” value is listed as “significant decrease in platelet count as compared with the saline treatment”. Further, in the series on tumor putrescine levels (DFMO infusion, rat-tumor model), the “decrease in tumor putrescine levels” value was determined as 90%. Besides, in the series on tumor putrescine levels (rat, in vivo), the peripheral platelet counts result is on record as “without suppressing peripheral platelet counts”.

The values above are taken from US5189025A, “Methods for the treatment of malignant disease in patients using citrulline containing amino acid solutions” (priority 1990, dated 1993).
